Data reported in US7510851B2, “Compositions and methods for diagnosing and treating diabetes, insulin resistance and dyslipidemia” (Metabolex, Inc., priority 2001, dated 2009).

Legend:
RGS2 = experiment: Taqman PCR expression in treated 3T3-L1 adipocytes; assay type: cell-based, mouse; details: for down regulation of RGS2, fold: Taqman PCR with SYBR green detection, verification of chip data; for RGS2 fold change: Taqman, 3T3-L1 adipocytes treated with rosiglitazone, PGD2 or 9α,11β-PGF2α
Description: (§1) Primers were designed against murine RGS2 and murine PDHK4 and the gene expression changes observed with the standard mouse chips were verified using Taqman PCR with SYBR green detection. Treatment of cells with pioglitazone, rosiglitazone or troglitazone caused a down regulation of RGS2 by 0.47 fold, 0.41 fold and 0.55 fold, respectively.
(§2) Taqman primers were used to analyze the expression of RGS2 and PDHK4 in mouse 3T3-L1 adipocytes treated with rosiglitazone, PGD2 and 9α,11β-PGF2α. […] In contrast, the fold change with 9α,11β-PGF2α was 0.75. […] In contrast, the fold change with 9α,11β-PGF2α was 0.77.

PDHK4 = experiment: Taqman PCR expression in treated 3T3-L1 adipocytes; assay type: cell-based, mouse; details: for up regulation of PDHK4, fold: Taqman PCR with SYBR green detection, verification of chip data; for PDHK4 fold change: Taqman, 3T3-L1 adipocytes treated with rosiglitazone, PGD2 or 9α,11β-PGF2α
Description: as §1, §2

[1] = system: pyruvate dehydrogenase kinase 4 mRNA (PDHK4); experiment: standard mouse micro-array expression in treated 3T3-L1 adipocytes; assay type: cell-based
Description: (§3) For RGS2 we observed down-regulation as follows; pioglitazone 0.29 fold p<0.00009, rosiglitazone 0.25 fold p<0.00003, troglitazone, 0.27 fold p<0.00085. […] As such these regulations are reflective of endogenous PPAR activation of endogenous genes.

RGS2 mRNA = experiment: as above; assay type: cell-based
Description: as §3

mouse 3T3-L1 adipocytes = experiment: glucose transport in 3T3-L1 adipocytes; assay type: cell-based; details: treatment for 40 hours
PPAR alpha = target: T1, PPAR alpha (Homo sapiens, UniProt Q07869); experiment: cell-based PPAR ligand activity reporter assay (PPAR ligand-binding domain coupled to heterologous DNA binding domain); details: reporter gene expression
T1 construct: expressed in transfected cells
T1 sequence (Q07869 239-466 limits assumed): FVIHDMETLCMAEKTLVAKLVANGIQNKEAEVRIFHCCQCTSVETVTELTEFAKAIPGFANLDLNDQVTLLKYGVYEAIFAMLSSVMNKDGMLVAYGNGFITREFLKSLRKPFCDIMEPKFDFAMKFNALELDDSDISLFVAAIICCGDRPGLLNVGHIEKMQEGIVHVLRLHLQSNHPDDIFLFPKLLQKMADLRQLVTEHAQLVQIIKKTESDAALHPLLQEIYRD
Experimental: (§4) Prostaglandin D2 and 9α,11β-PGF2α were assayed in cell-based assays (ex vivo) designed to detect PPAR ligand activity. The assay uses a recombinant protein consisting of a PPAR ligand-binding domain coupled to a heterologous DNA binding domain. See, e.g., Reginato, et. al., J. Biol. Chem. 273:32679 (1998). Binding of a ligand to the PPAR binding domain drives expression of a reporter gene.

PPAR gamma = target: T2, PPAR gamma (Homo sapiens, UniProt P37231); experiment: as above; details: reporter gene expression
T2 construct: expressed in transfected cells
T2 sequence (P37231 238-503 limits assumed): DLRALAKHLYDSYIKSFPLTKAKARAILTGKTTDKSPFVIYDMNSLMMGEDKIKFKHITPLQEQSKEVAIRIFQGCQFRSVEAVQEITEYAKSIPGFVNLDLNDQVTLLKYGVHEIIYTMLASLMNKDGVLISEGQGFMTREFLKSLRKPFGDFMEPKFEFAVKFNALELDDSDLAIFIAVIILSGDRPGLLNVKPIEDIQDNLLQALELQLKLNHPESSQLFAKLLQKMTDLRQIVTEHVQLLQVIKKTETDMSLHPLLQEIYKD
Experimental: as §4

[2] = system: aP2 reporter gene (endogenous PPAR); experiment: cell-based natural PPAR-responsive promoter (aP2) reporter gene assay; design: species or system mouse
Experimental: Prostaglandin D2 and 9α,11β-PGF2α were assayed in cell-based assays (ex vivo) designed to detect activation of a natural PPAR responsive promoter. The assay uses the promoter region of the mouse aP2 gene, which contains binding sites for PPARs (both PPAR alpha and gamma) coupled to a reporter gene. Binding of a ligand to endogenous PPAR results in activation of the aP2 reporter gene.

3T3-L1 adipocytes = experiment: insulin-stimulated glucose transport (3H-2-deoxyglucose) in adenovirus-infected 3T3-L1 adipocytes; assay type: cell-based, mouse; details: cells infected with control virus, 4 μM PGD2 for 20 hours
Experimental: 3T3-L1 adipocytes were infected with either control adenovirus or recombinant adenovirus encoding the four human AKR1C isoforms and incubated 20 hours to allow for protein expression. Cells were then treated 20 hours with 4 μM PGD2 and glucose transport in the absence and presence of insulin was measured.

SMILES | down regulation of RGS2, fold (RGS2) [fold] | up regulation of PDHK4, fold (PDHK4) [fold] | PDHK4 mRNA up regulation, fold [1] [fold] | RGS2 mRNA down-regulation, fold (RGS2 mRNA) [fold] | RGS2 fold change (RGS2) [fold change] | PDHK4 fold change (PDHK4) [fold change] | effect on glucose transport (mouse 3T3-L1 adipocytes) | activation of PPAR alpha (PPAR alpha) | activation of PPAR gamma (PPAR gamma) | activation of the aP2 reporter gene [2] | effect on insulin-stimulated glucose transport (3T3-L1 adipocytes)
CCc1ccc(CCOc2ccc(CC3SC(=O)NC3=O)cc2)nc1 (stereo not drawn) [pioglitazone] | 0.47 | 4.9 | 3.13 | 0.29 |  |  |  |  |  |  | 
CCCCC[C@H](O)/C=C/[C@@H]1[C@@H](C/C=C\CCCC(=O)O)[C@@H](O)C[C@@H]1O [9α,11β-PGF2α, 9α,11β-prostaglandin F2α] |  |  |  |  | 0.75 | 0.77 | no effect on glucose transport | without effect | without effect | without effect | 
Cc1c(C)c2c(c(C)c1O)CCC(C)(COc1ccc(CC3SC(=O)NC3=O)cc1)O2 (stereo not drawn) [troglitazone] | 0.55 | 5.5 | 3.2 | 0.27 |  |  |  |  |  |  | 
CN(CCOc1ccc(CC2SC(=O)NC2=O)cc1)c1ccccn1 (stereo not drawn) [rosiglitazone] | 0.41 | 5.45 | 3.16 | 0.25 | 0.20 | 3.73 |  |  |  |  | 
CCCCC[C@H](O)/C=C/[C@H]1C(=O)C[C@H](O)[C@@H]1C/C=C\CCCC(=O)O [PGD2, prostaglandin D2] |  |  |  |  | 0.29 | 2.39 | enhances glucose transport to similar levels as those observed with the PPAR ligand rosiglitazone | Significant activation | Significant activation | Significant activation | enhances insulin-stimulated glucose transport
